Patent US9040691B2, “Hydroxymethylaryl-substituted pyrrolotriazines as ALK1 inhibitors” (BAYER INTELLECTUAL PROPERTY GMBH, priority 2011, dated 2015)

test system: hSmad7 mRNA in BMP9-stimulated HMVEC; test: Smad7 target gene induction: HMVEC cell assay and TaqMan expression analysis; type: cell-based; conditions: Homo sapiens, hBMP9 stimulation, Smad7 mRNA by TaqMan
Experimental: B-2a. Smad7 Target Gene Induction: HMVEC Cell Assay and TaqMan Expression Analysis
Activation of ALK1 receptors by BMP9 induces the Smad1/5 signalling pathway and enhances expression of target genes Smad6, Smad7 and Id-1. Induction of Smad7-mRNA in BMP9-stimulated endothelial cells was determined to monitor the cellular potency of ALK1 kinase inhibitors.
Human microvascular endothelial cells (IIMVECadult, Cell Systems, St. Katharinen) were seeded in complete ENGS MV medium with all supplements (LifeLine Cell Technology) in 96 well plates with 10 000 cells per well. After 4 h incubation at 37° C. and 7.5% CO2 in a humidified incubator, medium was replaced with minimal medium (ENGS MV without supplements containing 0.02% FCS). After 16 h, test compounds or medium (controls) were added to the cultures, followed 30 min later by addition of hBMP9 (R&D Systems). Medium was removed 1 to 4 h later, plates were gently washed with phosphate-buffered saline, and cells were lysed with 150 μl per well of ice-cold RLT buffer (Qiagen).
Total cellular RNA was isolated with the Trizol® reagent protocol according to the manufacturer's specifications (Invitrogen, USA) and treated with DNAseI to remove genomic DNA contamination.
For relative quantitation of the mRNA distribution of hSmad7, total RNA from each sample was first reverse-transcribed using the ImProm-II Reverse Transcription System (Promega, USA) according to the manufacturer's protocol. The final volume was adjusted to 200 μl with water.
For relative quantitation of selected mRNA, the Applied Bioscience ABI 7900HT Sequence Detection System was used according to the manufacturer's specifications and protocols. PCR reactions were set up to quantitate hSmad7- and the housekeeping gene L32-mRNA. Forward and reverse primers and probes for hSmad7 and L32 were designed using the Applied Bioscience ABI Primer Expressim software and were synthesized by Eurogentec (Belgium). The hSmad7 forward primer sequence was: Primer 1 (SEQ ID NO 1). The hSmad7 reverse primer sequence was: Primer 2 (SEQ ID NO 2). Probe 1 (SEQ ID NO 3), labelled with FAM as the reporter dye and TAMRA as the quencher, was used as a probe for hSmad7. The L32 forward primer sequence was: Primer 3 (SEQ ID NO 4). The L32 reverse primer sequence was: Primer 4 (SEQ ID NO 5). Probe 2 (SEQ ID NO 6), labelled with FAM as the reporter dye and TAMRA as the quencher, was used as a probe for L32.
The following reagents were prepared in a total of 20 μl added per well: 1× qPCR-MasterMix (Eurogentec, Belgium) and hSmad7 forward and reverse primers each at 200 nM, 200 nM hSmad7 FAM/TAMRA-labelled probe 1 (SEQ ID NO 3), and 5 μl of template cDNA. Correspondingly, a second mix in a total of 20 μl was prepared using L32 FAM/TAMRA-labelled probe 2 (SEQ ID NO 6) and L32 forward and reverse primers added per well in parallel samples.
Thermal cycling parameters were 2 min at 50° C., followed by 10 min at 95° C., followed by 40 cycles of melting at 95° C. for 15 sec and annealing/extending at 60° C. for 1 min.
Calculation of Relative Expression:
The Ct (cycle threshold) values were calculated from the turning point of PCR product quantity curves by the ΔΔCt method (delta-delta Ct): ΔCt=CthSmad7−CtL32; relative expression=2^(15-ΔCt).
IC50 values of test compounds were calculated on basis of relative Smad7 expressions at different compound concentrations.

SMILES	IC50 [nM]
CCCc1cc(-c2ccc(CO)cc2)c2c(N)ncnn12 [Example 1, [4-(4-Amino-7-propylpyrrolo[2,1-f][1,2,4]triazin-5-yl)phenyl]methanol]	100
Nc1ncnn2c(CN3CCOCC3)cc(-c3ccc(CO)c(F)c3)c12 [Example 21, {4-[4-Amino-7-(morpholin-4-ylmethyl)pyrrolo[2,1-f][1,2,4]triazin-5-yl]-2-fluorophenyl}methanol]	6000
Nc1nc(-c2cc(-c3ccc(CO)cc3)c3c(N)ncnn23)cs1 [Example 17, {4-[4-Amino-7-(2-amino-1,3-thiazol-4-yl)pyrrolo[2,1-f][1,2,4]triazin-5-yl]phenyl}methanol]	120
CCCc1cc(-c2cc(F)c(CO)c(F)c2)c2c(N)ncnn12 [Example 2, [4-(4-Amino-7-propylpyrrolo[2,1-f][1,2,4]triazin-5-yl)-2,6-difluorophenyl]methanol]	125
Nc1ncnn2c(C(O)C3CC3)cc(-c3cc(F)c(CO)c(F)c3)c12 (stereo not shown) [Example 5, {4-Amino-5-[3,5-difluoro-4-(hydroxymethyl)phenyl]pyrrolo[2,1-f][1,2,4]triazin-7-yl}(cyclopropyl)methanol]	150
Nc1ncnn2c(CCCO)cc(-c3ccc(CO)cc3)c12 [Example 3, 3-{4-Amino-5-[4-(hydroxymethyl)phenyl]pyrrolo[2,1-f][1,2,4]triazin-7-yl}propan-1-ol]	180
Nc1ncnn2c1c(-c1cc(F)c(CO)c(F)c1)cc2[C@H]1CC[C@H](O)CC1 [Example 7, trans-4-[4-Amino-5-[3,5-difluoro-4-(hydroxymethyl)phenyl]pyrrolo[2,1-f][1,2,4]triazin-7-yl]-cyclohexanol]	130
Nc1ncnn2c([C@@H]3CCCNC3)cc(-c3cc(F)c(CO)c(F)c3)c12 [Example 11, (4-{4-Amino-7-[(3R)-piperidin-3-yl]pyrrolo[2,1-f][1,2,4]triazin-5-yl}-2,6-difluorophenyl)methanol]	90
Nc1ncnn2c(CN3CCOCC3)cc(-c3cc(F)c(CO)c(F)c3)c12 [Example 20, {4-[4-Amino-7-(morpholin-4-ylmethyl)pyrrolo[2,1-f][1,2,4]triazin-5-yl]-2,6-difluorophenyl}-methanol]	4400
Nc1ncnn2c(CN3CCOCC3)cc(-c3ccc(CO)c(Cl)c3)c12 [Example 22, {4-[4-Amino-7-(morpholin-4-ylmethyl)pyrrolo[2,1-f][1,2,4]triazin-5-yl]-2-chlorophenyl}methanol]	800
